Literature values, collected in patent publication US20200138792A1, “PHARMACEUTICAL COMBINATIONS OF ZONISAMIDE AND PRAMIPEXOLE, AND RELATED METHODS, FOR TREATING SYNUCLEINOPATHIES” (CHASE THERAPEUTICS CORPORATION, priority 2017, published 2020).

How the values were obtained:
[1] = 5 mg/day of pramipexole
[2] = tested on: human neuroblastoma SH-SY5Y cells
alpha-synuclein = alpha-synuclein (Homo sapiens, UniProt P37840)
[3] = target: human wild-type alpha-synuclein (Homo sapiens, UniProt P37840); settings: hydrogen peroxide plus cytochrome c
[4] = 25 mg-50 mg, alone or with levodopa
A53T α-synuclein = target: T1, A53T α-synuclein (Homo sapiens, UniProt P37840, A53T); settings: 40 mg/kg/day oral
T1 construct: host or cells: rat brain in vivo, transduced with a viral vector

[5] = tested on: nigral TH-positive neurons; settings: 20 mg/kg, MPTP-treated mice
nigral dopamine neurons = settings: 30 mg/kg injection, 6-OHDA mice
[6] = tested on: nigrostriatal dopaminergic neurons; settings: chronic administration

| SMILES | nausea, patients affected [1] [%] | vomiting, patients affected [1] [%] | patients not able to complete the study ([1]; presumably intolerable GI adverse events) [%] | aggregation of alpha-synuclein [2] | toxic effects of rotenone on dopaminergic neurons (dopaminergic neurons; mouse PD model) | immunoreactivity for alpha-synuclein (dopaminergic neurons; rotenone mouse PD model) | in vitro oligomerization and aggregation of alpha-synuclein (alpha-synuclein) | in vitro oligomerization of human wild-type alpha-synuclein [3] | motor symptoms in patients with PD [4] | survival of nigrostriatal dopamine neurons (A53T α-synuclein) | pace of degeneration vs control group (A53T α-synuclein; four weeks after injection of viral vector for A53T α-synuclein gene) | loss of nigral TH-positive neurons [5] | striatal dopamine depletion [5] | loss of nigral dopamine neurons (nigral dopamine neurons) | brain-derived neurotrophic factor content in striatum and ventral midbrain vs saline [6] | survival of nigrostriatal dopaminergic neurons, striatal dopaminergic terminals and motor function vs saline [6] |
| --- | --- | --- | --- | --- | --- | --- | --- | --- | --- | --- | --- | --- | --- | --- | --- | --- |
| CCCN[C@H]1CCc2nc(N)sc2C1 [pramipexole, (S)-6-propylamino-4,5,6,7-tetrahydro-1,3-benzothiazole-2-amine] | 76 | 39 | 36 | inhibit | inhibits | reducing | diminishes synuclein oligomer formation | decreases | – | – | – | – | – | – | – | – |
| NS(=O)(=O)Cc1noc2ccccc12 [zonisamide, 1,2-benzisoxazole-3-methanesulfonamide] | – | – | – | – | – | – | inhibits | – | improve motor symptoms | no impact | significantly delayed | reduced the loss of nigral TH-positive neurons | attenuating the associated striatal dopamine depletion | prevented the loss of nigral dopamine neurons | increased | improved |
